Measured values published in US20230212121A1 (DAEGU-GYEONGBUK MEDICAL INNOVATION FOUNDATION, priority 2020, published 2023).

Assays:
Type in all cases: cell-based
[1] = molecular target: T1, norepinephrine transporter (NET) (Homo sapiens, UniProt P23975); test: Norepinephrine reuptake inhibition, [3H]-NE, HEK-293 cells transfected with NE transporter cDNA; settings: for Triple reuptake inhibition (Ratio %) NET: compound 1 μM, [3H]-NE, relative to control without compound = 100%, lower value = more inhibition; for IC50: concentration at which Ratio % is 50%, 6 concentrations 1 nM to 1 μM, read-out: Triple reuptake inhibition (IC50, μM) NET
T1 construct: expressed in transfected cells; host or cells: HEK-293
T1 sequence (P23975 whole entry, species assumed): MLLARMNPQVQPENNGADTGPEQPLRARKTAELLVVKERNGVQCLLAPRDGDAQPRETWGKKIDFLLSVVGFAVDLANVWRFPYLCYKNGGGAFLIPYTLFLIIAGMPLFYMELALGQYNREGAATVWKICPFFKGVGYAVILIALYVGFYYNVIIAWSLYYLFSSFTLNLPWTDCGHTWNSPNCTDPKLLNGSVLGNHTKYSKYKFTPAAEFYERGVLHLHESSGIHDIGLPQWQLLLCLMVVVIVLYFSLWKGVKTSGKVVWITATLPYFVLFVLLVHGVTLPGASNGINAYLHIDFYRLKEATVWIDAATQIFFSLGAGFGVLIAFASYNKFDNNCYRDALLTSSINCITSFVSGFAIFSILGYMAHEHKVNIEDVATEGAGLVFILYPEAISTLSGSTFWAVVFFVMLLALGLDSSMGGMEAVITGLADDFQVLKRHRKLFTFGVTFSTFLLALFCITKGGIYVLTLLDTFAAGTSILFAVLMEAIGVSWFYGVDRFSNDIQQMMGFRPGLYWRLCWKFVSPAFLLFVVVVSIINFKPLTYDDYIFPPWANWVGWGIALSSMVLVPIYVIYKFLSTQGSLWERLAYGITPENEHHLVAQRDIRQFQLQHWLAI
In short: (§1)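 HEK-293 cells transfected with SERT or NET cDNA were preincubated with compounds in uptake buffer for 15 min at 37 °C, then given [3H]-5-HT or [3H]-NE for 5 min at 37 °C. After ice-cold washes and 1% SDS lysis, retained radioactivity was expressed relative to the untreated control (100%). Screening was at 1 μM; IC50 came from six concentrations (1 nM–1 μM).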

[2] = molecular target: T2, dopamine transporter (DAT) (Homo sapiens, UniProt Q01959); test: Dopamine reuptake inhibition, [3H]-DA, HEK-293 cells transfected with dopamine transporter cDNA; settings: for Triple reuptake inhibition (Ratio %) DAT: compound 1 μM, 20-30 nM [3H]-DA, relative to control without compound = 100%, lower value = more inhibition; for IC50: concentration at which Ratio % is 50%, 6 concentrations 1 nM to 1 μM, read-out: Triple reuptake inhibition (IC50, μM) DAT
T2 construct: expressed in transfected cells; host or cells: HEK-293
T2 sequence (Q01959 whole entry, species assumed): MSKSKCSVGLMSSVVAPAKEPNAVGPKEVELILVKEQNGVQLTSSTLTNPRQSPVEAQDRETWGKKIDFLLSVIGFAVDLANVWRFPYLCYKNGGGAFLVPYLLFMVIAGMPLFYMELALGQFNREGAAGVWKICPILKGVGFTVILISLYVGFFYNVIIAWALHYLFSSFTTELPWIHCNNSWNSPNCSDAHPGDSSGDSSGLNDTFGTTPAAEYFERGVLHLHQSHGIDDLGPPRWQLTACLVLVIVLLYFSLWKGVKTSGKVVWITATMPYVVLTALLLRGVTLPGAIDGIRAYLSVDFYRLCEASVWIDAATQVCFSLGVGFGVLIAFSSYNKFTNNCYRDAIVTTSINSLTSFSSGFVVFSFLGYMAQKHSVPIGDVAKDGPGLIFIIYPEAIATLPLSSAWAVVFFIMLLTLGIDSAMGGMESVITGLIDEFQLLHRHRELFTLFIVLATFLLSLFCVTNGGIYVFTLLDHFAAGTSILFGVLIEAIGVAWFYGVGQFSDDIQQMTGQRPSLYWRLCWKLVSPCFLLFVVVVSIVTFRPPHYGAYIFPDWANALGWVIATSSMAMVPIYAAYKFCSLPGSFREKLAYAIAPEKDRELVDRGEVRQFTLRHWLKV
In short: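 Transfected cells were preincubated with compound (1 μM screen) for 15 min at 37 °C, then given 20-30 nM tracer for 5 min at 37 °C, washed ice-cold and lysed in 1% SDS for radioactivity counting. Uptake was expressed as % of untreated control, and IC50 came from six concentrations, 1 nM to 1 μM.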

[3] = molecular target: T3, serotonin transporter (SERT) (Homo sapiens, UniProt P31645); test: Serotonin reuptake inhibition, [3H]-5-HT, HEK-293 cells transfected with 5-HT transporter cDNA; settings: for Triple reuptake inhibition (Ratio %) SERT: compound 1 μM, [3H]-5-HT, relative to control without compound = 100%, lower value = more inhibition; for IC50: concentration at which Ratio % is 50%, 6 concentrations 1 nM to 1 μM, read-out: Triple reuptake inhibition (IC50, μM) SERT
T3 construct: expressed in transfected cells; host or cells: HEK-293
T3 sequence (P31645 whole entry, species assumed): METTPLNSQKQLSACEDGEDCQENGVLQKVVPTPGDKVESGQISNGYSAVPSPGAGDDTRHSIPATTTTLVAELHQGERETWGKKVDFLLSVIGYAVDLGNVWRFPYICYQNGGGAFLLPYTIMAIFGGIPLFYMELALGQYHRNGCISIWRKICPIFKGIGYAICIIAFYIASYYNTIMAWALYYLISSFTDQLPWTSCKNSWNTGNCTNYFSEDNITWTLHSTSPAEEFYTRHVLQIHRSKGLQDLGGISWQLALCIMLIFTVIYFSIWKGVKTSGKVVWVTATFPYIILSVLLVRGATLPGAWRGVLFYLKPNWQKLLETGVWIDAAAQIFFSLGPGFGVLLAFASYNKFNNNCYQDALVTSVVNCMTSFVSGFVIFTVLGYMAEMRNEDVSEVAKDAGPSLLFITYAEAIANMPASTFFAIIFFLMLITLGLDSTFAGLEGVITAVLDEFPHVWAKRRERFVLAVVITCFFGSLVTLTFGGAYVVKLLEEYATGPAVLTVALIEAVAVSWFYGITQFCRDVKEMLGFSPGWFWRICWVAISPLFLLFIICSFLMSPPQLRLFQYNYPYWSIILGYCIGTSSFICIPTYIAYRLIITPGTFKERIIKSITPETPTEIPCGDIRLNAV
In short: as §1

Triple reuptake inhibition (Ratio %) NET [1]	Triple reuptake inhibition (Ratio %) DAT [2]	Triple reuptake inhibition (Ratio %) SERT [3]	Structure (SMILES)	IC50 [1]	IC50 [2]	IC50 [3]
34.97%	80.21%	64.15%	O=S(=O)(NCCN1CCC(c2ccccc2)CC1)c1ccc2ccccc2c1 [Example 42, N-(2-(4-phenylpiperidin-1-yl)ethyl)naphthalen-2-sulfonamide]	–	–	–
31.83%	35.21%	46.18%	O=S(=O)(NCCCN1CCC(Cc2ccccc2)CC1)c1cccc2ccccc12 [Example 55, N-(3-(4-benzylpiperidin-1-yl)propyl)naphthalen-1-sulfonamide]	1.3 µM	1.55 µM	1.45 µM

Structure (SMILES)	Triple reuptake inhibition (Ratio %) NET [1]	Triple reuptake inhibition (Ratio %) DAT [2]	Triple reuptake inhibition (Ratio %) SERT [3]	IC50 [1]	IC50 [2]	IC50 [3]
CCCCOc1ccc(S(=O)(=O)NCCCN2CCC(Cc3ccc(F)c(F)c3)CC2)cc1 [Example 21, 4-butoxy-N-(3-(4-(3,4-difluorobenzyl)piperidinyl)propyl)benzenesulfonamide]	26.67%	57.35%	38.74%	0.946 µM	4.72 µM	0.455 µM
